Reference: article doi:10.1101/2025.02.01.636040v1 (bioRxiv, 2025)

Key:
CHIKVP [1] = molecular target: T1, CHIKVP (Chikungunya virus, UniProt Q8JUX6); settings: 500 μM peptide, 5 μM CHIKVP, 1 hour, LC-MS extracted ion chromatograms
CHIKVP [2] = molecular target: T1, CHIKVP; settings: 500 µM of each peptide mixed, 5 µM CHIKVP, 10 minutes, LC-MS/UV peak area
CHIKVP [3] = molecular target: T1, CHIKVP; settings: 300 µM CHIKVP, 1.5 mM peptide, 10 min, 298 K, 75 mM deuterated Tris pH 7.5

T1 sequence (Q8JUX6 1004-1327 limits assumed): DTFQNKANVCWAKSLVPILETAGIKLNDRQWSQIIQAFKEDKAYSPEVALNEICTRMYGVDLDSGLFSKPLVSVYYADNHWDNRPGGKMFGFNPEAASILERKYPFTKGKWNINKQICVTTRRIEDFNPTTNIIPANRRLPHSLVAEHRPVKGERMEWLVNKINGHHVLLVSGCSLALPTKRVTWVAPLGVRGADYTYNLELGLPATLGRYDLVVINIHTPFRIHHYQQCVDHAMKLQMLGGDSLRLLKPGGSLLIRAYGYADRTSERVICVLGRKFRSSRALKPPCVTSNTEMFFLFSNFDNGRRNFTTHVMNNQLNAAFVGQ

Substance: VEQLEDRAGA/GIIGGSRR
- cleavage by CHIKVP by LC-MS (CHIKVP [1]): effectively cleaved
- decrease in peak area (CHIKVP [2]): 52.7%

Substance: DELRLDRAGG/YIFSS
- cleavage by CHIKVP by LC-MS (CHIKVP [1]): effectively cleaved
- decrease in peak area (CHIKVP [2]): 54.1%
- binding to CHIKVP from 1H-NMR line broadening (CHIKVP [3]): more potent binder of CHIKVP
